Assay results from patent US7074789B2, “Kinase inhibitors” (Amgen Inc., priority 1999, dated 2006).

What was measured:
Assay type in all cases: biochemical
Lck = target: T1, Lck (Homo sapiens, UniProt P06239); experiment: Kinase inhibition assay (33P transfer), Lck; settings: Table 3, class symbols; read-out: Lck-1
T1 construct: Kinases are expressed as either kinase domains or full length constructs; made in house
Outline: (§1)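 GST/His-tagged kinase (domain or full length; E. coli or baculovirus) + [33P]ATP on plates coated with poly(Glu,Tyr) 4:1 or poly(Arg,Ser) 3:1; incubate, wash 0.5% H3PO4, add scintillant, count.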

Zap-70 = target: T2, Zap-70 (Homo sapiens, UniProt P43403); experiment: Kinase inhibition assay (33P transfer), Zap-70; settings: Table 3, class symbols; read-out: Zap-1
T2 construct: Kinases are expressed as either kinase domains or full length constructs; made in house
T2 sequence (P43403 1-619): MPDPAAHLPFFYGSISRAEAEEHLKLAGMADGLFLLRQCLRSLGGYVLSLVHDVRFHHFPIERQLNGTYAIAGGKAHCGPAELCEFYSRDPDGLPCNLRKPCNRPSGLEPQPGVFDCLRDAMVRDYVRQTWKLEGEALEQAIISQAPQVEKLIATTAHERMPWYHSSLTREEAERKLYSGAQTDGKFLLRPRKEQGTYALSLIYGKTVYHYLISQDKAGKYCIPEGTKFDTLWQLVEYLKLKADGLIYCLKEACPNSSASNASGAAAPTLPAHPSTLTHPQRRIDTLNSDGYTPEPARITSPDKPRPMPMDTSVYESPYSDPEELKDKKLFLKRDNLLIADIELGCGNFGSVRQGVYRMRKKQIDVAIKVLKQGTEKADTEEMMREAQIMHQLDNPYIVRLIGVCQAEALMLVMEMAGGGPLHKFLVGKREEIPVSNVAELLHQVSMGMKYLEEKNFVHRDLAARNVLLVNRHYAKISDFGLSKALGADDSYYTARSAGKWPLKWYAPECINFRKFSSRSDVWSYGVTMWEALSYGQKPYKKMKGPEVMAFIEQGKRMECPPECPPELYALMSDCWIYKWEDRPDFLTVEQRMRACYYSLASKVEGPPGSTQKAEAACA
Outline: as §1

Itk = target: T3, Itk (Homo sapiens, UniProt Q08881); experiment: Kinase inhibition assay (33P transfer), Itk; settings: Table 3, class symbols; read-out: Itk-1
T3 construct: Kinases are expressed as either kinase domains or full length constructs; made in house
T3 sequence (Q08881 1-620): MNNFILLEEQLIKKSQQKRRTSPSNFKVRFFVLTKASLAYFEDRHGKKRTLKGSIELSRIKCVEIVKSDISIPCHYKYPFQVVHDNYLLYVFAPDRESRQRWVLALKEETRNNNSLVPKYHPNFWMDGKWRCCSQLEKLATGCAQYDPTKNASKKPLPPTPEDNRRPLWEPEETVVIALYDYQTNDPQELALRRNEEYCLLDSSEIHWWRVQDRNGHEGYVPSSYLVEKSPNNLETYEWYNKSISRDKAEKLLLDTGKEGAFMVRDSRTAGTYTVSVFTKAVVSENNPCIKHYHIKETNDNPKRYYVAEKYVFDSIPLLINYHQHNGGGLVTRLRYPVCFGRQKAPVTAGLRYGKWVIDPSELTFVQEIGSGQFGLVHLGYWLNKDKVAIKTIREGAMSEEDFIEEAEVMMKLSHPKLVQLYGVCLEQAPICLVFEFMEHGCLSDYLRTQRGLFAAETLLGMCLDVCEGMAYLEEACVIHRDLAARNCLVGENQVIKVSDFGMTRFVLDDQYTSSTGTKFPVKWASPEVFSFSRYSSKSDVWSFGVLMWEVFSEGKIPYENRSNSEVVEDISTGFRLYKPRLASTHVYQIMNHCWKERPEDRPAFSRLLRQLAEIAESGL
Outline: (§2)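 Read-out: scintillation counts of 33P moved from ATP onto synthetic peptide polymer coated on the well surface, after washing with 0.5% phosphoric acid. Enzymes were tagged (GST or polyHistidine) and came from bacterial or insect-cell expression. IC50 marks 50% loss of incorporated label.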

EGFR = target: T4, EGFR (Homo sapiens, UniProt P00533); experiment: Kinase inhibition assay (33P transfer), EGFR; settings: Table 2, class symbols A-E; read-out: EGFR-1
T4 construct: Kinases are expressed as either kinase domains or full length constructs; made in house
T4 sequence (P00533 25-1210, species assumed): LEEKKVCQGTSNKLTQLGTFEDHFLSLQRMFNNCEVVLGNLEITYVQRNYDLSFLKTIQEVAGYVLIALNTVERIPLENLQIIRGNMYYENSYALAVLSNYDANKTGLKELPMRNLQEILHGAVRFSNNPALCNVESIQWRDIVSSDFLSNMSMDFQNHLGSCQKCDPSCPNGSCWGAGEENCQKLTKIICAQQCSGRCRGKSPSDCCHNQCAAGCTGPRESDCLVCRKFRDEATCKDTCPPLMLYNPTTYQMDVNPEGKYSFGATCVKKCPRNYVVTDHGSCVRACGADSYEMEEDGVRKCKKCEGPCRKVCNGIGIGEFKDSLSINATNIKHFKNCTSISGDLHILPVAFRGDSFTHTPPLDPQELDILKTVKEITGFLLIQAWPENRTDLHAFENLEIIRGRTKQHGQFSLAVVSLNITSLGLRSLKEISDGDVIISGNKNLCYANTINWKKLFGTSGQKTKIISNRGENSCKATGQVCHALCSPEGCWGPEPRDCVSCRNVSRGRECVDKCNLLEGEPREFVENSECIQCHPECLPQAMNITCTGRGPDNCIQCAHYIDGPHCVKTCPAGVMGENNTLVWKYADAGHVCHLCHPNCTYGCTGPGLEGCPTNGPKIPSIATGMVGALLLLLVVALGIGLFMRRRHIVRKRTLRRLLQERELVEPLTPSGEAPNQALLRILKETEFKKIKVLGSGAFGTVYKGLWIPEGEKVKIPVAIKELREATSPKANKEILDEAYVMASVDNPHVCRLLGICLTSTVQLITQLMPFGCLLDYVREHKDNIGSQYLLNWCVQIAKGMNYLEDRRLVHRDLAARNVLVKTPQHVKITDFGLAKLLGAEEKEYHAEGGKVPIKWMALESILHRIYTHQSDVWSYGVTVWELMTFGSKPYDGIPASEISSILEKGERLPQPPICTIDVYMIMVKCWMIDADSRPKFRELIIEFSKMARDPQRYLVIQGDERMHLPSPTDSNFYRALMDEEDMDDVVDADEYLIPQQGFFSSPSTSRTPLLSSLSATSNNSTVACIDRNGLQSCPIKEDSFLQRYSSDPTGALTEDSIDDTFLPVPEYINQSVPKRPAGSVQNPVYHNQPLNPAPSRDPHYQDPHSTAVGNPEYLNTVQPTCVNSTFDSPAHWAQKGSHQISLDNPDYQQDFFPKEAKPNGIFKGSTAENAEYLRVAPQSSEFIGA
Outline: as §2

ErbB2 = target: T5, ErbB2 (Homo sapiens, UniProt P04626); experiment: Kinase inhibition assay (33P transfer), ErbB2; settings: read-out: ErbB2-2
T5 construct: Kinases are expressed as either kinase domains or full length constructs; made in house
T5 sequence (P04626 23-1255, species assumed): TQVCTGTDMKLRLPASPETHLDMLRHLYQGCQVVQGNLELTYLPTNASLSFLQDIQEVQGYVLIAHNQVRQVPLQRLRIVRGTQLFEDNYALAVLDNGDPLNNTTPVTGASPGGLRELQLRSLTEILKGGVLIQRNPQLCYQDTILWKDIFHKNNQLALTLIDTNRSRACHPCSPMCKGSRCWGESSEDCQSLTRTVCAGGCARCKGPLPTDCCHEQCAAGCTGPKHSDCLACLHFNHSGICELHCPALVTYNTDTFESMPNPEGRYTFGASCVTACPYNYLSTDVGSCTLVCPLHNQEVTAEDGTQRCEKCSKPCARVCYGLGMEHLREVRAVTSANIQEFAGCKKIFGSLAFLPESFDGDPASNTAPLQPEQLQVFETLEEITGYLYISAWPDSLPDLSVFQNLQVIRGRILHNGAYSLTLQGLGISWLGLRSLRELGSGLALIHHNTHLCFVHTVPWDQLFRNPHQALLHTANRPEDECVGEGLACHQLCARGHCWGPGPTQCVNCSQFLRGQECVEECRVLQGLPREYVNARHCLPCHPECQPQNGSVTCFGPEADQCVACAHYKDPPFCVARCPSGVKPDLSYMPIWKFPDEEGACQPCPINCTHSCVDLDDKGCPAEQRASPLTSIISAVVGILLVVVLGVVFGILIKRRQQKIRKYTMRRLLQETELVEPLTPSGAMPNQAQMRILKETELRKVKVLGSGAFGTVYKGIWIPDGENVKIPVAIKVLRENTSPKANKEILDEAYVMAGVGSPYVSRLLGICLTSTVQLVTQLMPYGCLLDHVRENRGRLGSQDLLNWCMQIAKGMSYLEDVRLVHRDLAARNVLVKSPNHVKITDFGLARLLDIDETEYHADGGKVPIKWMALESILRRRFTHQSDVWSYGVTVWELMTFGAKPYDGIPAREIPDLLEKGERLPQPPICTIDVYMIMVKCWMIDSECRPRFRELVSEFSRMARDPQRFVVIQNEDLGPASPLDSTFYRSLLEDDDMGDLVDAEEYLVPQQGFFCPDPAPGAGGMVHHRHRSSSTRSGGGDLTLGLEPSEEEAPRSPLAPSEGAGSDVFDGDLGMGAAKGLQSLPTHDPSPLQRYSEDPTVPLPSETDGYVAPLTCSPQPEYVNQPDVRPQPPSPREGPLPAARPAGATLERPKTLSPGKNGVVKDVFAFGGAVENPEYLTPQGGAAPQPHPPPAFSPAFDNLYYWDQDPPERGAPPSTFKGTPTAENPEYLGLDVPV
Outline: as §2

Kdr = target: T6, Kdr (Homo sapiens, UniProt P35968); experiment: Kinase inhibition assay (33P transfer), Kdr; settings: Table 3, class symbols; read-out: KDR-1
T6 construct: Kinases are expressed as either kinase domains or full length constructs; made in house
T6 sequence (P35968 20-1356, species assumed): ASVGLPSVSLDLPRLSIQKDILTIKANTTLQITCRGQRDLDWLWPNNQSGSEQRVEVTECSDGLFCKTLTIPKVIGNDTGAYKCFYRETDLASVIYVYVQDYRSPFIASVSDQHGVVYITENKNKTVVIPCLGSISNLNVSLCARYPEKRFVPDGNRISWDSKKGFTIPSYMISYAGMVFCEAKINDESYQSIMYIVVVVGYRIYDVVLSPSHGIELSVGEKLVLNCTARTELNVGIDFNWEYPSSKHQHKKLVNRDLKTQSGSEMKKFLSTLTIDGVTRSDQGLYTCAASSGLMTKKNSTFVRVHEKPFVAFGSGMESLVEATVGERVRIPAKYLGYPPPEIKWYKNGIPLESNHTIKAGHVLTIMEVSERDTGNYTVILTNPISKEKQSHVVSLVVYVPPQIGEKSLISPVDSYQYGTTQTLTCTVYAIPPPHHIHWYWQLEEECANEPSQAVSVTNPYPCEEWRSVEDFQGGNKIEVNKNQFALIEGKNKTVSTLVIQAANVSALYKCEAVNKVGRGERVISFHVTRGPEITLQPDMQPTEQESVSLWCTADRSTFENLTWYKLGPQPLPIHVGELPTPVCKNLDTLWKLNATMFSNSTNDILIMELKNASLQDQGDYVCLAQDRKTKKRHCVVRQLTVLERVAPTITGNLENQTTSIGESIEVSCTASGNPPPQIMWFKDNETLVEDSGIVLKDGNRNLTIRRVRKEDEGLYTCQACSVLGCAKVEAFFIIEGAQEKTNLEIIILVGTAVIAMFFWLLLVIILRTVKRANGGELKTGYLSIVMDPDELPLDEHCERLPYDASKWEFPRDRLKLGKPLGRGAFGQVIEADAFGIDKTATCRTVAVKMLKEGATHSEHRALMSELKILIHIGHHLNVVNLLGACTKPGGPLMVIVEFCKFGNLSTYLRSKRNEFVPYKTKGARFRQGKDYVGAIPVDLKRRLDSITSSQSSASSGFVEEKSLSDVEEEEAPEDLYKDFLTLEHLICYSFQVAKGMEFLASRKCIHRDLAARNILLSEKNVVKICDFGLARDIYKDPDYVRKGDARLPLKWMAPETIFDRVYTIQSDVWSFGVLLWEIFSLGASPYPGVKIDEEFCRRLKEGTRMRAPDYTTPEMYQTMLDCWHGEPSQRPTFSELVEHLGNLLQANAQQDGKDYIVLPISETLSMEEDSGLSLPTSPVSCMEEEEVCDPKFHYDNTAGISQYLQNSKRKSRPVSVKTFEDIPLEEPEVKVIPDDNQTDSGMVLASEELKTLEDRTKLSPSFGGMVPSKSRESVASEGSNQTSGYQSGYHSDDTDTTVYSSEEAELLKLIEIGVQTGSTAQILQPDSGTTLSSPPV
Outline: as §1

c-Met = target: T7, c-Met (Homo sapiens, UniProt P08581); experiment: Kinase inhibition assay (33P transfer), c-Met; settings: Table 2, class symbols A-E; read-out: Met-1
T7 construct: Kinases are expressed as either kinase domains or full length constructs; made in house
T7 sequence (P08581 25-1390): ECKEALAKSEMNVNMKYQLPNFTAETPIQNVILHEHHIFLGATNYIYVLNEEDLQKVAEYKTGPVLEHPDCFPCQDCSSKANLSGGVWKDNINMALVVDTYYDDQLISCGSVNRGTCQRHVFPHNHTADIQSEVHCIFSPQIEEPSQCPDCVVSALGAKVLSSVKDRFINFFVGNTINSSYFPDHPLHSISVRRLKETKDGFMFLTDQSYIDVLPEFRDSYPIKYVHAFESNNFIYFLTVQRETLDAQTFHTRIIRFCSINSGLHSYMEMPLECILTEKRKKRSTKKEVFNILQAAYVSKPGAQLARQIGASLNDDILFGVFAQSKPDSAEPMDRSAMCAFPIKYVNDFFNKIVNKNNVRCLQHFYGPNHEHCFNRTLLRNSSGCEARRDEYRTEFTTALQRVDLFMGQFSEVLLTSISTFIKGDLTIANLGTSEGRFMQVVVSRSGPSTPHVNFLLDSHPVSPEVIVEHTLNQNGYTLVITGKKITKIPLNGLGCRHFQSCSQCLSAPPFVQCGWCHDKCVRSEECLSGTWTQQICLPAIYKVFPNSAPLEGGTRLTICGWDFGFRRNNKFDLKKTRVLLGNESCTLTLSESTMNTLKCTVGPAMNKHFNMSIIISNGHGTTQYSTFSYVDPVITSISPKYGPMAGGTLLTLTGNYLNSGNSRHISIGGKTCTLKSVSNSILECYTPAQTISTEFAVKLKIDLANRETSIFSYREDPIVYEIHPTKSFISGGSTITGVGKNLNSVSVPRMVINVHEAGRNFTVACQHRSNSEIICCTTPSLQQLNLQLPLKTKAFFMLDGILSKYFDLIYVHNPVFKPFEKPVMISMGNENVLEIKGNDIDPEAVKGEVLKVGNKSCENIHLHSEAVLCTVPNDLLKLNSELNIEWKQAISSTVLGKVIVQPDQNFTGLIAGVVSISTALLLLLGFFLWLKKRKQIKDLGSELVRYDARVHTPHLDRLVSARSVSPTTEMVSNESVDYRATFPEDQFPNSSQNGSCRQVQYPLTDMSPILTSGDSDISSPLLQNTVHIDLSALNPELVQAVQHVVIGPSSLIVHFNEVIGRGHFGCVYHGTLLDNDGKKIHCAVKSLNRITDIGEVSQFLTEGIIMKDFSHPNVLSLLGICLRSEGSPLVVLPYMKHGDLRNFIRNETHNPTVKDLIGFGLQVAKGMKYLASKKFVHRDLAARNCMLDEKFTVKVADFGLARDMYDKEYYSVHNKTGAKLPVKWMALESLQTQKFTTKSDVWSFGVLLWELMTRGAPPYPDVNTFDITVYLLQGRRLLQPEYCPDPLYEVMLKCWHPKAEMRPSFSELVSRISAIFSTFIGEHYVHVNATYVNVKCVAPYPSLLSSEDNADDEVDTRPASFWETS
Outline: as §2

AKT = target: T8, AKT (Homo sapiens, UniProt Q9Y243); experiment: Kinase inhibition assay (33P transfer), AKT; settings: Table 2, class symbols A-E; read-out: AKT3-1
T8 construct: Kinases are expressed as either kinase domains or full length constructs; made in house
Outline: as §1

IGFR-1 = target: T9, IGFR-1 (Homo sapiens, UniProt P08069); experiment: Kinase inhibition assay (33P transfer), IGFR-1; settings: Table 2, class symbols A-E
T9 construct: Kinases are expressed as either kinase domains or full length constructs; made in house

PDGFRB = target: T10, PDGFRB (Homo sapiens, UniProt P09619); experiment: Kinase inhibition assay (33P transfer), PDGFRB; settings: read-out: PDGFRB-1
T10 construct: Kinases are expressed as either kinase domains or full length constructs; made in house

Compound | IC50 (Lck) | IC50 (Zap-70) | IC50 (Itk) | IC50 (EGFR) | IC50 (ErbB2) | IC50 (Kdr) | IC50 (c-Met) | IC50 (AKT) | IC50 (IGFR-1) | IC50 (PDGFRB)
COc1cc(Nc2ncnc(N3CCCc4ccc(Cl)cc43)n2)cc(OC)c1OC [Compound 645] | > 10.5 µM | > 10.5 µM | > 10.5 µM | < 0.935 µM | < 0.935 µM | > 10.5 µM | > 10.5 µM | > 10.5 µM | > 10.5 µM | > 10.5 µM
COc1cc(Nc2ncnc(N(CCO)c3ccccc3)n2)cc(OC)c1OC [Compound 637] | 1.01 to 6.04 µM | > 11.3 µM | > 11.3 µM | < 1.01 µM | 6.04 to 8.81 µM | 1.01 to 6.04 µM | 6.04 to 8.81 µM | > 11.3 µM | > 11.3 µM | 6.04 to 8.81 µM
COc1ccc(Nc2ncnc(N(C)c3ccc(Cl)cc3)n2)cc1OC [Compound 795] | 1.08 to 6.45 µM | > 12.1 µM | > 12.1 µM | < 1.08 µM | < 1.08 µM | 1.08 to 6.45 µM | < 1.08 µM | > 12.1 µM | 9.41 to 12.1 µM | < 1.08 µM
COc1ccc(Nc2ncnc(Nc3cc(-c4ccc(C)cc4)n[nH]3)n2)c(C)c1 [Compound 1126] | < 1.03 µM | > 11.6 µM | 1.03 to 6.19 µM | 1.03 to 6.19 µM | 1.03 to 6.19 µM | 6.19 to 9.03 µM | 1.03 to 6.19 µM | > 11.6 µM | < 1.03 µM | 1.03 to 6.19 µM
COc1ccc(Nc2ncnc(Nc3ccc(N4CCCCC4)cc3)n2)cc1OC [Compound 899] | 0.984 to 5.9 µM | > 11.1 µM | 0.984 to 5.9 µM | 0.984 to 5.9 µM | 0.984 to 5.9 µM | 0.984 to 5.9 µM | 0.984 to 5.9 µM | 5.9 to 8.61 µM | 5.9 to 8.61 µM | < 0.984 µM
c1coc(-c2cc(Nc3ncnc(Nc4ccc(-c5csnn5)cc4)n3)n[nH]2)c1 [Compound 891] | 5.95 to 8.68 µM | 0.991 to 5.95 µM | 0.991 to 5.95 µM | 0.991 to 5.95 µM | < 0.991 µM | < 0.991 µM | < 0.991 µM | 0.991 to 5.95 µM | < 0.991 µM | < 0.991 µM
CN(c1cccc(Cl)c1)c1ncnc(Nc2ccc3nn(C)cc3c2)n1 [Compound 675] | 1.09 to 6.56 µM | > 12.3 µM | > 12.3 µM | < 1.09 µM | < 1.09 µM | 1.09 to 6.56 µM | 1.09 to 6.56 µM | > 12.3 µM | 6.56 to 9.57 µM | 1.09 to 6.56 µM
CCN(c1cccc(Cl)c1)c1ncnc(Nc2cc(OC)cc(OC)c2)n1 [Compound 724] | 1.04 to 6.22 µM | > 11.7 µM | 1.04 to 6.22 µM | < 1.04 µM | 1.04 to 6.22 µM | 1.04 to 6.22 µM | 1.04 to 6.22 µM | > 11.7 µM | 1.04 to 6.22 µM | 1.04 to 6.22 µM
CC(C)Nc1ncccc1-c1ncnc(Nc2cccc(CC(=O)O)c2)n1 [Compound 1097] | 1.1 to 6.59 µM | 6.59 to 9.6 µM | > 12.3 µM | > 12.3 µM | > 12.3 µM | 1.1 to 6.59 µM | 6.59 to 9.6 µM | > 12.3 µM | > 12.3 µM | < 1.1 µM
CNC(=O)c1cccc(Nc2ncnc(Nc3cc(-c4ccco4)[nH]n3)n2)c1 [Compound 826] | 1.06 to 6.38 µM | > 12 µM | 1.06 to 6.38 µM | < 1.06 µM | 1.06 to 6.38 µM | < 1.06 µM | 1.06 to 6.38 µM | > 12 µM | 1.06 to 6.38 µM | 1.06 to 6.38 µM
O=C(O)Cc1cccc(Nc2ncnc(Nc3ccc(Cl)cc3F)n2)c1 [Compound 968] | > 12 µM | > 12 µM | > 12 µM | 1.07 to 6.42 µM | 6.42 to 9.36 µM | < 1.07 µM | 9.36 to 12 µM | > 12 µM | 9.36 to 12 µM | < 1.07 µM
O=C(O)Cc1cccc(Nc2ncnc(-c3cccnc3NCc3ccccc3)n2)c1 [Compound 1099] | 0.97 to 5.82 µM | > 10.9 µM | > 10.9 µM | < 0.97 µM | 0.97 to 5.82 µM | < 0.97 µM | 0.97 to 5.82 µM | > 10.9 µM | > 10.9 µM | < 0.97 µM
c1ccc(CNc2ncccc2-c2ncnc(Nc3ccc(N4CCOCC4)cc3)n2)cc1 [Compound 1105] | > 10.2 µM | > 10.2 µM | > 10.2 µM | > 10.2 µM | > 10.2 µM | < 0.91 µM | > 10.2 µM | > 10.2 µM | > 10.2 µM | < 0.91 µM
COc1cc(Nc2ncnc(-c3cccnc3Nc3ccc(C(F)(F)F)cc3)n2)cc(OC)c1OC [Compound 835] | > 9.03 µM | > 9.03 µM | > 9.03 µM | > 9.03 µM | > 9.03 µM | > 9.03 µM | > 9.03 µM | > 9.03 µM | > 9.03 µM | > 9.03 µM
COc1cccc(CCNc2ncnc(Nc3ccc4c(cnn4Cc4ccccc4)c3)n2)c1OC [Compound 873] | > 9.34 µM | > 9.34 µM | > 9.34 µM | > 9.34 µM | > 9.34 µM | > 9.34 µM | > 9.34 µM | > 9.34 µM | > 9.34 µM | > 9.34 µM
COC(=O)c1ccc(-c2cc(Nc3ncnc(Nc4cc(=O)n(-c5ccccc5)[nH]4)n3)[nH]n2)cc1 [Compound 880] | > 9.59 µM | > 9.59 µM | > 9.59 µM | 0.852 to 5.11 µM | 5.11 to 7.46 µM | 5.11 to 7.46 µM | 0.852 to 5.11 µM | > 9.59 µM | > 9.59 µM | 0.852 to 5.11 µM
c1ccc(-c2cc(Nc3ncnc(Nc4cccc(-c5cnco5)c4)n3)[nH]n2)cc1 [Compound 1010] | 1.01 to 6.05 µM | > 11.4 µM | 6.05 to 8.83 µM | 1.01 to 6.05 µM | 1.01 to 6.05 µM | 1.01 to 6.05 µM | < 1.01 µM | 1.01 to 6.05 µM | < 1.01 µM | 1.01 to 6.05 µM
COc1cc(Nc2ncnc(-c3cccnc3Nc3ccc4c(c3)CCC4)n2)cc(OC)c1OC [Compound 830] | > 9.56 µM | > 9.56 µM | > 9.56 µM | > 9.56 µM | > 9.56 µM | 0.85 to 5.1 µM | 0.85 to 5.1 µM | > 9.56 µM | > 9.56 µM | > 9.56 µM
COC(=O)c1ccc(-c2cc(Nc3ncnc(Nc4cccc5ncccc45)n3)[nH]n2)cc1 [Compound 878] | > 10.3 µM | > 10.3 µM | 7.98 to 10.3 µM | > 10.3 µM | > 10.3 µM | > 10.3 µM | 7.98 to 10.3 µM | > 10.3 µM | 5.47 to 7.98 µM | 0.912 to 5.47 µM
COc1cc(Nc2ncnc(-c3cccnc3NC(C)c3cccc4ccccc34)n2)cc(OC)c1OC (centres unmarked) [Compound 845] | 0.787 to 4.72 µM | > 8.85 µM | > 8.85 µM | > 8.85 µM | 4.72 to 6.88 µM | < 0.787 µM | > 8.85 µM | 0.787 to 4.72 µM | > 8.85 µM | 0.787 to 4.72 µM
